Legend:
ATR/ATRIP complex = ATR/ATRIP complex (Homo sapiens (Human), UniProt Q13535); experiment: ATR/ATRIP enzymatic assay (Caliper-based); type: biochemical; details: ATR/ATRIP enzyme; FAM-labeled RAD17 peptide, ATP
Protocol: (§1) The ability of the compounds of Formula I to inhibit the catalytic activity of the ATR/ATRIP complex was measured in a Caliper-based assay, and in HT-29 cells in an Alphascreen assay, following the ATR-mediated phosphorylation of CHK1, described below.
Human full-length FLAG-TEV-ATR and His6-ATRIP were co-expressed in HEK293 cells. […] The sample was loaded into a column, and then washed with buffer A three times. Protein was subsequently eluted with 2 ml of buffer B (buffer A+200 μg/ml 3×FLAG peptide).
The ability of new chemical matter to inhibit the ATR catalytic activity in this ATR/ATRIP complex was assessed using a Caliper-based assay. A 2× enzyme solution (i.e., 4 nM enzyme) was prepared using 1× Kinase Reaction Buffer (25 mM HEPES pH 8, 0.0055% Brij-35, 10 mM MnCl2, and 1 mM DTT). […] 10 μL of the 2× enzyme solution was transferred to an assay plate containing 60 nL of test compound (from a 3× serial dilution) in 100% DMSO. Following a 30-min incubation at 28° C., 10 μL of the 2× peptide solution was then transferred to the same assay plate. The reaction incubated at 28° C. for 6 h. After adding 30 μL stop buffer (100 mM HEPES pH 7.5, 0.015% Brij-35, 0.2% Coating-3 Reagent (PerkinElmer, catalog #PN760050), and 50 mM EDTA), data were collected on a Caliper instrument. Conversion values were converted to inhibition values via the following equation: % inhibition=(max−conversion)/(max−min)*100, wherein “max” corresponds to the DMSO control, and “min” corresponds to the low control. IC50 values were calculated using the following equation in XLFit: Y=Bottom+(Top−Bottom)/1+(IC50/X)^HillSlope).

[1] = system: ATR-driven phosphorylation of Chk1 kinase at Serine 345 in HT-29 cells; experiment: pCHK1 cellular assay (CHK1 p-Ser345 AlphaScreen SureFire); type: cell-based; details: Homo sapiens; HT-29 colorectal adenocarcinoma cells; 4-nitroquinoline N-oxide 12 μM; read-out: Cell IC50 (pCHK1)
Protocol: as §1
Cellular IC50 for the inhibitors of ATR described herein were measured in HT-29 colorectal adenocarcinoma cells.
The microplate was incubated overnight (approximately 20 hours) at 37° C. with 5% CO2 and ambient O2. Stock solutions of the test compounds were prepared in 100% DMSO (Sigma, Catalog #D2650) and serially diluted 1:3 using 100% DMSO. Compounds were additionally diluted 1:33 in culture medium, and 10 μL/well were transferred to the tissue culture plate. Following the compound addition, the microplate was incubated at 37° C. for 90 minutes. […] The cells were then washed with PBS and lysed using 10 μL/well […]® Kit lysis buffer diluted to 1× in water (PerkinElmer Catalog #TGRCHK1S50K), with mixing on an orbital shaker at 500 rpm for 20 min at room temperature. Lysates were frozen at −20 OC overnight.
The pCHK1 ALPHASCREEN® signal was measured using an ENVISION® plate reader (PerkinElmer). IC50 values were calculated using a four-parameter logistic curve fit using Genedata Screener software. Percent of control for each compound concentration was calculated by the following formula: 100*(Compound−Min)/(Max−Min), where “Max” is the high control, DMSO, and “Min” is the low control, 5 μM ATR inhibitor.

Sequence of ATR/ATRIP complex (Q13535 whole entry): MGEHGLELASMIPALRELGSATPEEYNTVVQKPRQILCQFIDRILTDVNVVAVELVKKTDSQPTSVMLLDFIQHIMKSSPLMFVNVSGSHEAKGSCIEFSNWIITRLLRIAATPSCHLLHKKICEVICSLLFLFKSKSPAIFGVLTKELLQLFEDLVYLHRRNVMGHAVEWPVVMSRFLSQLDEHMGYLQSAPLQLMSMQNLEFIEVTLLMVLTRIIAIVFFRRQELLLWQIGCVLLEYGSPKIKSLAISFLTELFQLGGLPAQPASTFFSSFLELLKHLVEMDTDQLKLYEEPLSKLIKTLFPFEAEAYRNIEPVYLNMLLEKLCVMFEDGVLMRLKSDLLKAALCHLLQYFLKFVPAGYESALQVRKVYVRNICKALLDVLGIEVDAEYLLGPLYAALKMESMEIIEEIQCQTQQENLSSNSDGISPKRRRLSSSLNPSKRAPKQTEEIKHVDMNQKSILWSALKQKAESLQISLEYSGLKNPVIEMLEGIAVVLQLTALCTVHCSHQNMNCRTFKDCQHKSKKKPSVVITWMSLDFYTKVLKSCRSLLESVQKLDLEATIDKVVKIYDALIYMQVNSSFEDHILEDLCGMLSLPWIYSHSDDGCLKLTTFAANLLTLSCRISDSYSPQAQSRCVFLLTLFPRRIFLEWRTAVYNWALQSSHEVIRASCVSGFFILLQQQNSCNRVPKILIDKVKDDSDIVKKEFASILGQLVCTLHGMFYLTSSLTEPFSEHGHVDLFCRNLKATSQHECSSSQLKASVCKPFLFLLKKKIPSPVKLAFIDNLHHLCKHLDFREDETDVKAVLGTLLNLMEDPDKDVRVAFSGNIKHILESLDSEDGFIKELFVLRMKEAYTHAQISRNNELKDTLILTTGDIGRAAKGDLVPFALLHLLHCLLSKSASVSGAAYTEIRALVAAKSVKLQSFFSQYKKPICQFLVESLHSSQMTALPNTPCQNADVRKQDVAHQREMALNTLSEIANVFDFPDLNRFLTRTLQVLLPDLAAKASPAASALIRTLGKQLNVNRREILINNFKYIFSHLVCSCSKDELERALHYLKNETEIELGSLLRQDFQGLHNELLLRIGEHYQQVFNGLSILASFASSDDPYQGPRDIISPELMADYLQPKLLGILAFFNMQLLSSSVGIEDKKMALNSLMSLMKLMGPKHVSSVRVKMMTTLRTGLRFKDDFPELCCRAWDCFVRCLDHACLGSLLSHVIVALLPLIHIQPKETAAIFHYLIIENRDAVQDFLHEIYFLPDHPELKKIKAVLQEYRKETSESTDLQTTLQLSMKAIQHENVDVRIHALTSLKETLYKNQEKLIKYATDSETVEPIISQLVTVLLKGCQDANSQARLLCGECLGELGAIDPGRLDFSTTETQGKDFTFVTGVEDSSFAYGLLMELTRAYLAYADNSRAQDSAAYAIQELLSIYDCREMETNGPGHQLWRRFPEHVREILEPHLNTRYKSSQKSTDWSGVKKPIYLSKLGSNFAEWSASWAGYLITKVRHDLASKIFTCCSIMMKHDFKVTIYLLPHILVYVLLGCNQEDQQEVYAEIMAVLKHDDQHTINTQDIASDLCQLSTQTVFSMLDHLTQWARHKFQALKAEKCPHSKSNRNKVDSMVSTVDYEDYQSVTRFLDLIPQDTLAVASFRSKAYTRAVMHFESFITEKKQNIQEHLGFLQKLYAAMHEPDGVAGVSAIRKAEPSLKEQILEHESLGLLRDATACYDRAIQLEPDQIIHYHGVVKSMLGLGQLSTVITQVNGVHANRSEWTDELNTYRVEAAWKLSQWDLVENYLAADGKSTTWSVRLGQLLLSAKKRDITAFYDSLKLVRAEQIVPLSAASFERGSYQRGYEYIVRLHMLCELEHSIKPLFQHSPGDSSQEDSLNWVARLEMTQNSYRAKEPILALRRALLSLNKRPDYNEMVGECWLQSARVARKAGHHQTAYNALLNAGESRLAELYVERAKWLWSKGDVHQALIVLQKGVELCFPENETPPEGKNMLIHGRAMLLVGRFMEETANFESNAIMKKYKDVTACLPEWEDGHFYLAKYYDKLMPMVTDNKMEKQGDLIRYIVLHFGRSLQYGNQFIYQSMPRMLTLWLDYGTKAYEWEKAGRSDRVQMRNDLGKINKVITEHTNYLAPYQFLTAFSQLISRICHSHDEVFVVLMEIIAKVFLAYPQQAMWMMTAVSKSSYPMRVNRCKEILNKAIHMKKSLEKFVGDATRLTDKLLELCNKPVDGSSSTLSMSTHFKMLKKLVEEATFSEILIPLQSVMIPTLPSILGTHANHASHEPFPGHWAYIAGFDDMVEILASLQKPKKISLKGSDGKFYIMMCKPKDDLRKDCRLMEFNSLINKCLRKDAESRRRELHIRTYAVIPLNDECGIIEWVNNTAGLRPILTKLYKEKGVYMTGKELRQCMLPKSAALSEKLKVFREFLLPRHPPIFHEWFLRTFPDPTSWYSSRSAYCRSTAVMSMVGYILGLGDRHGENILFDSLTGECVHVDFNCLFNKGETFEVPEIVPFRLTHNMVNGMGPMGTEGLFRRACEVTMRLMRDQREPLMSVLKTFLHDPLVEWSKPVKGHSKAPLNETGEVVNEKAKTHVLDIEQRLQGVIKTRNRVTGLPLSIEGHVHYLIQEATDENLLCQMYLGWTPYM
Sequence of ATR/ATRIP complex (Q8WXE1 whole entry partner): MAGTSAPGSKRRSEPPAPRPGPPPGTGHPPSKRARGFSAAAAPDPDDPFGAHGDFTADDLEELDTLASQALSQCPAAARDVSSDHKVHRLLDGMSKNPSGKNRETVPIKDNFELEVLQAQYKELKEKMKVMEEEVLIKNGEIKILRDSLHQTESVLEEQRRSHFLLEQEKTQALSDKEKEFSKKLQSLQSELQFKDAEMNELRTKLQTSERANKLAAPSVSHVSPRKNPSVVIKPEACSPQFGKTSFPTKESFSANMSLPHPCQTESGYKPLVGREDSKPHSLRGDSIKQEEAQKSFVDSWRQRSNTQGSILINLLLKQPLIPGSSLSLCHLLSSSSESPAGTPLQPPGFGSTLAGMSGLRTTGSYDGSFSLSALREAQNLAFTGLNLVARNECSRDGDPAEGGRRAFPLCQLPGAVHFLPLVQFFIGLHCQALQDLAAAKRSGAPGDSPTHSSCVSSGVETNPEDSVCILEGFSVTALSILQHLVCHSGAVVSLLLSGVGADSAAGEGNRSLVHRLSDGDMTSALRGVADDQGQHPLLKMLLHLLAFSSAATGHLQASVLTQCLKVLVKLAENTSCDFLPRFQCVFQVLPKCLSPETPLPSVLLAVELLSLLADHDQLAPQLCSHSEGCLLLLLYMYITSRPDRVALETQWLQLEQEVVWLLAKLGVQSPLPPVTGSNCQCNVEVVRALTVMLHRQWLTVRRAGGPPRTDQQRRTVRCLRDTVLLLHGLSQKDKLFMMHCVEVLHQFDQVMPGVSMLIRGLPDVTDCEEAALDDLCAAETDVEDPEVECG

Row | SMILES | IC50 (ATR/ATRIP complex) [nM] | IC50 [1] [nM]
1 | C[C@@H]1COCCN1c1cc(N=S2(=O)CCCC2)nc(-c2ccnc3[nH]ccc23)c1 [Example 26, (R)-1-((4-(3-methylmorpholino)-6-(1H-pyrrolo[2,3-b]pyridin-4-yl)pyridin-2-yl)imino)tetrahydro-1H-1-λ^6-thiophene 1-oxide] | 8 | 701
2 | C[C@@H]1COCCN1c1cc(N=S(C)(C)=O)nc(-c2cc(Cl)nc3[nH]ccc23)c1 [Example 27, (R)-((6-(6-chloro-1H-pyrrolo[2,3-b]pyridin-4-yl)-4-(3-methylmorpholino)pyridin-2-yl)imino)dimethyl-λ^6-sulfanone] | 30 | 660
3 | Cc1nc2ccccc2n1-c1cc(N2CCOC[C@H]2C)cc(N=S(C)(C)=O)n1 [Example 28, (R)-dimethyl((6-(2-methyl-1H-benzo[d]imidazol-1-yl)-4-(3-methylmorpholino)pyridin-2-yl)imino)-λ^6-sulfanone] | 24 | 10000
4 | C[C@@H]1COCCN1c1cc(N=S(C)(C)=O)nc(-c2nccn2C)c1 [Example 31, (R)-dimethyl((6-(1-methyl-1H-imidazol-2-yl)-4-(3-methylmorpholino)pyridin-2-yl)imino)-λ^6-sulfanone] | 3470 | 3060
5 | C[C@@H]1COCCN1c1cc(N=S(C)(C)=O)nc(-c2cc(F)cc3[nH]ccc23)c1 [Example 32, (R)-((6-(6-fluoro-1H-indol-4-yl)-4-(3-methylmorpholino)pyridin-2-yl)imino)dimethyl-λ^6-sulfanone] | 4 | 195
6 | C[C@@H]1COCCN1c1cc(N=S(C)(C)=O)nc(-c2ccnn2C)c1 [Example 33, (R)-dimethyl((6-(1-methyl-1H-pyrazol-5-yl)-4-(3-methylmorpholino)pyridin-2-yl)imino)-λ^6-sulfanone] | 1850 | 615
7 | C[C@@H]1COCCN1c1cc(N=S(C)(C)=O)nc(-c2cnn(C)c2)c1 [Example 34, (R)-dimethyl((6-(1-methyl-1H-pyrazol-4-yl)-4-(3-methylmorpholino)pyridin-2-yl)imino)-λ^6-sulfanone] | 3440 | 10000
8 | Cc1nccn1-c1cc(N2CCOC[C@H]2C)cc(N=S(C)(C)=O)n1 [Example 39, (R)-dimethyl((6-(2-methyl-1H-imidazol-1-yl)-4-(3-methylmorpholino)pyridin-2-yl)imino)-λ^6-sulfanone] | 3470 | 3060
